Where two headings read alike, the source gives them in different places.
Columns and labels:
NCI-H358 (K-Ras G12C) = test: CellTiter-Glo cell viability assay, NCI-H358; format: cell-based, human
Summary of the method: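 NCI-H358 cells were treated with test compounds dispensed directly into the assay wells and incubated until day 5. Viability was then read by CellTiter-Glo luminescence after a ~30 min room-temperature equilibration, normalized to the DMSO average (×100), and fit with a four-parameter logistic curve.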

KRAS G12C = KRAS G12C (Homo sapiens (Human), UniProt P01116+P62937, G12C); test: Ras-Raf disruption/FRET/MOA assay (BRAF RBD, Cyclophilin A); format: biochemical; conditions: read-out: KRAS G12C FRET IC50
Summary of the method: (§1)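 Measured: compound-facilitated Cyclophilin A:Ras complex blocking RAF RBD binding. Conditions: 12.5 nM Ras-GMPPNP, 50 nM BRAF RBD, 25 μM CypA, 3 h plus 1.5 h detection. Output: IC50 from TR-FRET ratio.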

KRAS G13D = KRAS G13D (Homo sapiens (Human), UniProt P01116+P62937, G13D); test: as above; format: biochemical; conditions: read-out: KRAS G13D FRET data IC50
Summary of the method: as §1

KRAS Q61H = KRAS Q61H (Homo sapiens (Human), UniProt P01116+P62937, Q61H); test: as above; format: biochemical
Summary of the method: as §1

KRAS WT = KRAS WT (Homo sapiens (Human), UniProt P01116+P62937); test: as above; format: biochemical; conditions: read-out: KRAS WT FRET data IC50
Summary of the method: as §1

KRAS G12S = KRAS G12S (Homo sapiens (Human), UniProt P01116+P62937, G12S); test: as above; format: biochemical; conditions: read-out: KRAS G12S FRET IC50
Summary of the method: as §1

NRAS G12C = NRAS G12C (Homo sapiens (Human), UniProt P01111+P62937, G12C); test: as above; format: biochemical; conditions: read-out: NRAS G12C FRET data IC50
Summary of the method: (§2)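 TR-FRET readout: anti-His Eu-W1024 (10 nM) and anti-GST allophycocyanin (50 nM) added after 3 h, 25° C compound incubation, then 1.5 h more. Decrease in FRET ratio versus DMSO wells marks Ras:RAF disruption; IC50 reported.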

KRAS G12D = KRAS G12D (Homo sapiens (Human), UniProt P01116+P62937, G12D); test: as above; format: biochemical; conditions: read-out: KRAS G12D FRET IC50
Summary of the method: as §1

NRAS WT = NRAS WT (Homo sapiens (Human), UniProt P01111+P62937); test: as above; format: biochemical
Summary of the method: as §2

KRAS G13C = KRAS G13C (Homo sapiens (Human), UniProt P01116+P62937, G13C); test: as above; format: biochemical; conditions: read-out: KRAS G13C FRET IC50
Summary of the method: as §1

KRAS G12V = KRAS G12V (Homo sapiens (Human), UniProt P01116+P62937, G12V); test: as above; format: biochemical; conditions: read-out: KRAS G12V FRET IC50
Summary of the method: as §1

NRAS Q61R = NRAS Q61R (Homo sapiens (Human), UniProt P01111+P62937, Q61R); test: as above; format: biochemical
Summary of the method: as §2

[1] = tested on: NCI-H358 cells (K-Ras G12C); test: CellTiter-Glo cell viability, NCI-H358; format: cell-based, human; conditions: Homo sapiens, NCI-H358, 120 h, K-Ras G12C, 5-day treatment; read-out: H358 Cell Viability IC50
Summary of the method: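 Compounds were dispensed directly onto seeded cells and incubated until day 5, then plates were equilibrated at room temperature for about 30 min before CellTiter-Glo luminescence readout. Signals were normalized as (sample/average DMSO)×100 and fitted with a four-parameter logistic model.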

NRAS Q61K = NRAS Q61K (Homo sapiens (Human), UniProt P01111+P62937, Q61K); test: Ras-Raf disruption/FRET/MOA assay (BRAF RBD, Cyclophilin A); format: biochemical
Summary of the method: as §2

[2] = Homo sapiens, NCI-H358, 120 h, 5-day treatment, read-out: H358 Cell Viability assay data (K-Ras G12C, IC50)

Chain of KRAS G13C (P01116 other isoform, or with tags, fused parts or gaps G13C): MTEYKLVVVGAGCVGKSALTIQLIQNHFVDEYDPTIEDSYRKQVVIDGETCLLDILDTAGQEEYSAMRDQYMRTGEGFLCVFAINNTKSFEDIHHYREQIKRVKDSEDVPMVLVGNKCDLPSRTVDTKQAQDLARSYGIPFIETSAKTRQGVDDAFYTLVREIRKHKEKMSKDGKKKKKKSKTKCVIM
Chain of KRAS G13C (P62937 whole entry): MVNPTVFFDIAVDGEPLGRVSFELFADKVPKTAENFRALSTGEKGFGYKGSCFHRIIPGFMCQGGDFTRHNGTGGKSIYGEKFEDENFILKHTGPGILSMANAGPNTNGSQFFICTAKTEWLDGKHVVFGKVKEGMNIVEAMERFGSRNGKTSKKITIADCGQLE
Chain of KRAS G13D (P01116 other isoform, or with tags, fused parts or gaps G13D): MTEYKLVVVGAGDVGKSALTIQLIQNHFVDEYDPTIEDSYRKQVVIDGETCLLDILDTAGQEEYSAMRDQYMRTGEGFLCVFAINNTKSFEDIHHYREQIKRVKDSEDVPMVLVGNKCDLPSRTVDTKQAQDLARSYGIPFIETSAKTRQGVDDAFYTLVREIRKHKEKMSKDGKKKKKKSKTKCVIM
Chain of KRAS G13D (P62937 whole entry): as the sequence (P62937 whole entry) above
Chain of KRAS G12V (P01116 other isoform, or with tags, fused parts or gaps G12V): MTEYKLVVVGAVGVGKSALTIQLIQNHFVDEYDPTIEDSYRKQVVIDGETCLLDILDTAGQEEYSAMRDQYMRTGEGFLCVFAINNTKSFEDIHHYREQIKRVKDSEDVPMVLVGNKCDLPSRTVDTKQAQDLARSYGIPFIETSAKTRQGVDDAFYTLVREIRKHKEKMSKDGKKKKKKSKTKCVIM
Chain of KRAS G12V (P62937 whole entry): as the sequence (P62937 whole entry) above
Chain of KRAS G12S (P01116 other isoform, or with tags, fused parts or gaps G12S): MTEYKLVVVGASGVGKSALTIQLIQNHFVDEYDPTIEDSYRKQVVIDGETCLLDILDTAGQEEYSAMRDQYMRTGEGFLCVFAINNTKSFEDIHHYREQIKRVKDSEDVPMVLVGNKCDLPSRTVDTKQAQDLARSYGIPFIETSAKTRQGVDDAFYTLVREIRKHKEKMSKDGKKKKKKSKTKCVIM
Chain of KRAS G12S (P62937 whole entry): as the sequence (P62937 whole entry) above
Chain of KRAS WT (P01116 other isoform, or with tags, fused parts or gaps): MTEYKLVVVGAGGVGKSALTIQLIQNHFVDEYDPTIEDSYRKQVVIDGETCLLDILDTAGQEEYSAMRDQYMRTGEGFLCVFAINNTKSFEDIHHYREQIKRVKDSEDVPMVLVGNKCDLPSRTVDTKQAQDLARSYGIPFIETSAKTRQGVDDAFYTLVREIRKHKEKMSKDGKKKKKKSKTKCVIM
Chain of KRAS WT (P62937 whole entry): as the sequence (P62937 whole entry) above
Chain of NRAS Q61R (P01111 whole entry Q61R): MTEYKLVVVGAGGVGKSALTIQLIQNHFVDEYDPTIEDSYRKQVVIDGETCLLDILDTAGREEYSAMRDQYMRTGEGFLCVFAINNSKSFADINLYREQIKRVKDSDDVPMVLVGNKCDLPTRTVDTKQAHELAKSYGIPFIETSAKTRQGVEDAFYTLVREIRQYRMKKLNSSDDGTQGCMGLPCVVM
Chain of NRAS Q61R (P62937 whole entry): as the sequence (P62937 whole entry) above
Chain of KRAS G12C (P01116-2 other isoform, or with tags, fused parts or gaps G12C): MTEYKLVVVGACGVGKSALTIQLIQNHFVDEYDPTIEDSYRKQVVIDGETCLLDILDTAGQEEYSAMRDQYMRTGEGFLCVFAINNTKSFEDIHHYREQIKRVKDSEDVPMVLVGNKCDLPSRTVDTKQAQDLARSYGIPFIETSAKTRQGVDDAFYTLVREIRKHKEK
Chain of KRAS G12C (P62937 whole entry): as the sequence (P62937 whole entry) above
Chain of KRAS Q61H (P01116 other isoform, or with tags, fused parts or gaps Q61H): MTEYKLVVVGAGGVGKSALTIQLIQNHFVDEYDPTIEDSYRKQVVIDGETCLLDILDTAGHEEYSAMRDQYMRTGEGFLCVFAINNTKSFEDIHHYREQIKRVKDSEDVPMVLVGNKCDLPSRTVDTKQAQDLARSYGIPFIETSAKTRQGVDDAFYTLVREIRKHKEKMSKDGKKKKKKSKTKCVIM
Chain of KRAS Q61H (P62937 whole entry): as the sequence (P62937 whole entry) above
Chain of NRAS Q61K (P01111 whole entry Q61K): as the sequence (P01111 whole entry Q61R) above, with R61K counted along it
Chain of NRAS Q61K (P62937 whole entry): as the sequence (P62937 whole entry) above
Chain of NRAS WT (P01111 whole entry): as the sequence (P01111 whole entry Q61R) above, with R61Q counted along it
Chain of NRAS WT (P62937 whole entry): as the sequence (P62937 whole entry) above
Chain of NRAS G12C (P01111 whole entry G12C): as the sequence (P01111 whole entry Q61R) above, with G12C, R61Q counted along it
Chain of NRAS G12C (P62937 whole entry): as the sequence (P62937 whole entry) above
Chain of KRAS G12D (P01116 other isoform, or with tags, fused parts or gaps G12D): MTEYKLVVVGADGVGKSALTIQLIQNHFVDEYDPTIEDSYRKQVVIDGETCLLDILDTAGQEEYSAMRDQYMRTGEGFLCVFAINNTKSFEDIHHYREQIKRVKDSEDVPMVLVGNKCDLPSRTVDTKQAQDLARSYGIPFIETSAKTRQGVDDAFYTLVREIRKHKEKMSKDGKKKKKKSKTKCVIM
Chain of KRAS G12D (P62937 whole entry): as the sequence (P62937 whole entry) above

Structure (SMILES) | IC50 (NCI-H358 (K-Ras G12C); [2]) | IC50 (KRAS G12C) | IC50 (KRAS G13D) | IC50 (KRAS Q61H) | IC50 (KRAS WT) | IC50 (KRAS G12S) | IC50 (NRAS G12C) | IC50 (KRAS G12D) | IC50 (NRAS WT) | IC50 (KRAS G13C) | IC50 (KRAS G12V) | IC50 (NRAS Q61R) | IC50 [1] | IC50 (NRAS Q61K) | IC50 (NCI-H358 (K-Ras G12C); 5-day treatment, read-out: H358 Cell Viability assay data (K-Ras G12C, IC50)) | IC50 (NCI-H358 (K-Ras G12C); Homo sapiens, NCI-H358, 120 h, read-out: H358 Cell Viability assay data (K-Ras G12C, IC50, uM), 5-day treatment)
CCn1c(-c2cccnc2[C@H](C)OC)c2c3cc(ccc31)-c1csc(n1)C[C@H](NC(=O)[C@H](C(C)C)N(C)C(=O)N1CCN(C(=O)[C@@H]3CCCN3C)CC1)C(=O)N1CCC[C@H](N1)C(=O)OCC(C)(C)C2 [Compound A596] | < 0.01 µM | 10 to 100 nM | 100 to 1000 nM | 10 to 100 nM | 10 to 100 nM | 100 to 1000 nM | 10 to 100 nM | 100 to 1000 nM | 10 to 100 nM | 100 to 1000 nM | 100 to 1000 nM | 100 to 1000 nM | 10 to 100 nM | – | – | –
CCn1c(-c2cccnc2[C@H](C)OC)c2c3cc(ccc31)-c1csc(n1)C[C@H](NC(=O)[C@H](C(C)C)N(C)C(=O)N1CC([C@H](C)COC)C1)C(=O)N1CCC[C@H](N1)C(=O)OCC(C)(C)C2 [Compound A533] | < 0.01 µM | 10 to 100 nM | 100 to 1000 nM | 10 to 100 nM | 100 to 1000 nM | 100 to 1000 nM | 10 to 100 nM | 100 to 1000 nM | 10 to 100 nM | 100 to 1000 nM | 100 to 1000 nM | 100 to 1000 nM | 10 to 100 nM | – | – | –
CCn1c(-c2cccnc2[C@H](C)OC)c2c3cc(ccc31)-c1csc(n1)C[C@H](NC(=O)[C@H](C(C)C)N(C)C(=O)N1CC[C@H]1CN)C(=O)N1CCC[C@H](N1)C(=O)OCC(C)(C)C2 [Compound A463] | < 0.01 µM | 100 to 1000 nM | 100 to 1000 nM | 100 to 1000 nM | 100 to 1000 nM | 100 to 1000 nM | 100 to 1000 nM | 100 to 1000 nM | 100 to 1000 nM | 100 to 1000 nM | 100 to 1000 nM | 1000 to 10000 nM | – | 1 to 10 µM | – | –
CCn1c(-c2cccnc2[C@H](C)OC)c2c3cc(ccc31)-c1csc(n1)C[C@H](NC(=O)[C@H](C(C)C)N(C)C(=O)N1CCN3C(=O)CN(C)C[C@H]3C1)C(=O)N1CCC[C@H](N1)C(=O)OCC(C)(C)C2 [Compound A537] | < 0.01 µM | 10 to 100 nM | 100 to 1000 nM | 10 to 100 nM | 10 to 100 nM | 10 to 100 nM | 10 to 100 nM | 100 to 1000 nM | 10 to 100 nM | 100 to 1000 nM | 100 to 1000 nM | 100 to 1000 nM | 10 to 100 nM | – | – | –
CCn1c(-c2cccnc2[C@H](C)OC)c2c3cc(ccc31)-c1cc(O)cc(c1)C[C@H](NC(=O)C1CCC3C1C3(F)F)C(=O)N1CCC[C@H](N1)C(=O)OCC(C)(C)C2 (stereo partly drawn) [Compound A181] | < 0.01 µM | 1000 to 10000 nM | 1000 to 10000 nM | 100 to 1000 nM | 1000 to 10000 nM | 1000 to 10000 nM | 1000 to 10000 nM | > 10000 nM | 1000 to 10000 nM | 100 to 1000 nM | 1000 to 10000 nM | – | – | 1 to 10 µM | 0.01 to 0.1 µM | –
CCn1c(-c2cccnc2[C@H](C)OC)c2c3cc(ccc31)-c1csc(n1)C[C@H](NC(=O)[C@H](C(C)C)N(C)C(=O)[C@H]1CCN(S(C)(=O)=O)C1)C(=O)N1CCC[C@H](N1)C(=O)OCC(C)(C)C2 [Compound A237] | – | 1000 to 10000 nM | > 10000 nM | – | 1000 to 10000 nM | 1000 to 10000 nM | 1000 to 10000 nM | > 10000 nM | 1000 to 10000 nM | 1000 to 10000 nM | 1000 to 10000 nM | 1000 to 10000 nM | – | 1 to 10 µM | – | < 0.01 µM
CCn1c(-c2cccnc2[C@H](C)OC)c2c3cc(ccc31)-c1csc(n1)C[C@H](NC(=O)[C@H](C(C)C)N(C)C(=O)N1CCC[C@H](N(C)C)CC1)C(=O)N1CCC[C@H](N1)C(=O)OCC(C)(C)C2 [Compound A493] | < 0.01 µM | 10 to 100 nM | 100 to 1000 nM | 10 to 100 nM | 10 to 100 nM | 100 to 1000 nM | 10 to 100 nM | 100 to 1000 nM | 10 to 100 nM | 100 to 1000 nM | 100 to 1000 nM | 100 to 1000 nM | 10 to 100 nM | – | – | –
CCn1c(-c2cccnc2[C@H](C)OC)c2c3cc(ccc31)-c1cc(O)cc(c1)C[C@H](NC(=O)[C@H](C(C)C)N(C)C(=O)C1CCC3(CCOC3)O1)C(=O)N1CCC[C@H](N1)C(=O)OCC(C)(C)C2 (stereo partly drawn) [Compound A409] | 0.01 to 0.1 µM | 10 to 100 nM | 10 to 100 nM | 10 to 100 nM | 10 to 100 nM | 10 to 100 nM | 10 to 100 nM | 100 to 1000 nM | 10 to 100 nM | 10 to 100 nM | 100 to 1000 nM | 100 to 1000 nM | 100 to 1000 nM | – | – | –
CCn1c(-c2cccnc2[C@H](C)OC)c2c3cc(ccc31)-c1csc(n1)C[C@H](NC(=O)[C@H](C(C)C)N(C)C(=O)N1CC([C@H](C)N(C)C)C1)C(=O)N1CCC[C@H](N1)C(=O)OCC(C)(C)C2 [Compound A538] | 0.01 to 0.1 µM | 10 to 100 nM | 100 to 1000 nM | 10 to 100 nM | 100 to 1000 nM | 100 to 1000 nM | 10 to 100 nM | 100 to 1000 nM | 100 to 1000 nM | 100 to 1000 nM | 100 to 1000 nM | 100 to 1000 nM | 10 to 100 nM | – | – | –
CCn1c(-c2cccnc2[C@H](C)OC)c2c3cc(ccc31)-c1csc(n1)C[C@H](NC(=O)[C@H](C(C)C)N(C)C(=O)N1C[C@@H]3OCCN(C)[C@@H]3C1)C(=O)N1CCC[C@H](N1)C(=O)OCC(C)(C)C2 [Compound A444] | < 0.01 µM | 10 to 100 nM | 100 to 1000 nM | 10 to 100 nM | 100 to 1000 nM | 100 to 1000 nM | 10 to 100 nM | 100 to 1000 nM | 100 to 1000 nM | 100 to 1000 nM | 100 to 1000 nM | 100 to 1000 nM | 10 to 100 nM | – | – | –
